Data published in patent publication EP4810052A2, “HCRHR2 SELECTIVE POLYPEPTIDES” (Gubra A/S, priority 2023, dated 2026).
Marks after values point to notes of the source that are not given here. Starred links: 1 amine or outer side, 2 acyl side, 3 side chain; linkers in the order of their positions; H or OH if unused. Residues, ends and D or L forms follow the SMILES beside them. Groups on a side chain read outwards from the residue. *: point of attachment. C20 diacid = O=C(O)CCCCCCCCCCCCCCCCCCC(=O)*; γGlu = O=C(O)[C@H](CCC(=O)[*:2])N[*:1]; AEEA = NCCOCCOCC(=O)O

Legend:
mCRHR2 = biological target: T1, mCRHR2 (Mus musculus, UniProt Q60748); assay: cAMP potency, transiently transfected CHO-K1 cells, mCRHR2; format: cell-based; conditions: transiently transfected CHO-K1, average n=3; read-out: Transient cell system EC50 (nM) mCRH R2
T1 construct: DYK (FLAG); host or cells: CHO-K1, transiently transfected
T1 sequence (Q60748 1-431 isoform Q60748-2): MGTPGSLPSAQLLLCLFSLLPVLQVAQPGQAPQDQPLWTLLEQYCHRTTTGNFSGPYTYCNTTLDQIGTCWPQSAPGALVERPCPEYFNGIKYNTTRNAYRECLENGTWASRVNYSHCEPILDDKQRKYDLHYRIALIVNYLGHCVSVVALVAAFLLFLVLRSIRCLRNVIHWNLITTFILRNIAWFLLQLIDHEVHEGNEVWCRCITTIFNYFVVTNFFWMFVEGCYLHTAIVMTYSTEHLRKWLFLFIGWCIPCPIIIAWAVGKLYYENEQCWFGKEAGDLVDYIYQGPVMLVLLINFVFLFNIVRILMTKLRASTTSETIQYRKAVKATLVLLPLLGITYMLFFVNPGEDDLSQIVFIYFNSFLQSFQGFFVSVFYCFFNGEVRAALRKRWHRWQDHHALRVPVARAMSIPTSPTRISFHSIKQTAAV
Experimental: Selected peptides were tested for potency on different species (mouse, rat, porcine) using transiently transfected CHO-K1 cells using the general procedure.

[1] = Body mass and body fat content in mouse model of diet-induced obesity (DIO); format: in vivo; conditions: DIO mice
Experimental: SEQ ID NO: 3, SEQ ID NO: 6, SEQ ID NO: 238, SEQ ID NO: 16 and SEQ ID NO: 215 were assessed for their ability to reduce body mass and body fat content in a mouse model of diet-induced obesity (DIO).
Male C57BL/6JRj mice were obtained from JanVier (JanVier Labs, France) at 5 weeks of age. The animals were group-housed during obesity induction and then single housed 2 weeks prior to study start. They were housed under a 12/12 h dark-light cycle, light off at 3 PM. Room temperature was controlled to 22°C ± 1°C, with 60 % ± 20% humidity. For 22-23 weeks prior to treatment start and throughout the study, the animals had ad libitum access to high-fat diet (60% kcal fat, D12492, Research Diets) and tap water.
The animals were randomized according to lean mass (EchoMRI) and body weight. Animals were dosed subcutaneously […] for 30-32 days. In study 1, the animals were dosed with vehicle or SEQ ID NO: 3 (10, 30, 60 or 100 nmol/kg). In study 2, the animals were dosed with vehicle or SEQ ID NO: 6 (10 or 30 nmol/kg), SEQ ID NO: 238 (10 or 30 nmol/kg), SEQ ID NO: 16 (10 or 30 nmol/kg), SEQ ID NO: 215 (10 or 30 nmol/kg) or SEQ ID NO: 3 (30 nmol/kg).
Body weight and food intake were recorded daily until day 28 and body composition evaluated on day 26 using EchoMRI. At termination, blood for HbA1c analyses were collected and M. gastrocnemius and M. soleus were weighed.
Statistical significance was evaluated using One-way analysis of variance with Dunnett's multiple comparison test. P < 0.05 was considered statistically significant.

[2] = Table 16 study, 10 nmol/kg, ± SEM
[3] = Table 16 study, 30 nmol/kg, ± SEM
[4] = Table 16 study, 60 nmol/kg, ± SEM
[5] = Table 16 study, 100 nmol/kg, ± SEM
[6] = Table 17 study, 30 nmol/kg, ± SEM

CC[C@H](C)[C@H](N)C(=O)N[C@H](C(=O)N[C@@H](CC(C)C)C(=O)N[C@@H](CO)C(=O)N[C@@H](CC(C)C)C(=O)N[C@@H](CC(=O)O)C(=O)N[C@H](C(=O)N1CCC[C@H]1C(=O)N[C@H](C(=O)NCC(=O)N[C@@H](CC(C)C)C(=O)N[C@@H](CC(C)C)C(=O)N[C@@H](CCC(N)=O)C(=O)N[C@H](C(=O)N[C@@H](CC(C)C)C(=O)N[C@@H](CC(C)C)C(=O)N[C@@H](CCC(=O)O)C(=O)N[C@@H](CCC(N)=O)C(=O)N[C@@H](C)C(=O)N[C@@H](CCCNC(=N)N)C(=O)N[C@@H](C)C(=O)N[C@@H](CCCNC(=N)N)C(=O)N[C@@H](C)C(=O)N[C@@H](C)C(=O)N[C@@H](CCCNC(=N)N)C(=O)N[C@@H](CCC(=O)O)C(=O)N[C@@H](CCC(N)=O)C(=O)N[C@@H](C)C(=O)N[C@@H](CCCCNC(=O)COCCOCCNC(=O)COCCOCCNC(=O)CC[C@H](NC(=O)CC[C@H](NC(=O)CCCCCCCCCCCCCCCCCCC(=O)O)C(=O)O)C(=O)O)C(=O)N[C@H](C(=O)N[C@@H](CC(N)=O)C(=O)N[C@@H](C)C(=O)N[C@@H](CCC(=O)O)C(=O)N[C@H](C(=O)N[C@@H](CC(C)C)C(=O)N[C@@H](C)C(=O)N[C@@H](CCC(=O)O)C(=O)N[C@H](C(N)=O)C(C)C)[C@@H](C)CC)[C@@H](C)O)[C@@H](C)CC)[C@@H](C)CC)C(C)C)C(C)C [SEQ ID NO: 3] (H-IVLSLDVPIGLLQILLEQARARAAREQAK([AEEA-AEEA-γGlu-γGlu-C20 diacid])TNAEILAEV-NH2)
EC50 (mCRHR2): 0.0054 nM
relative body weight ([1]; 28 days, compared to vehicle): prolonged dose-dependent reduction
Blood HbA1c ([1]; Table 16 study, 10 nmol/kg): 4.3 ± 0.1%
M. Gastrocnemius ([1]; Table 16 study, 10 nmol/kg): 0.17 ± 0.005 g
M. Soleus ([1]; Table 16 study, 10 nmol/kg): 0.011 ± 0.0005 g
BW at termination [1, 2]: 41.9 ± 1.5 g
Fat mass change from baseline [1, 2]: -7.7 ± 0.7 g
Lean mass change from baseline [1, 2]: 1.4 ± 0.3 g
Relative body weight change at termination [1, 2]: 94.3 ± 1.6 %
Blood HbA1c ([1]; Table 16 study, 30 nmol/kg): 4.1 ± 0.1 %
M. Gastrocnemius ([1]; Table 16 study, 30 nmol/kg): 0.17 ± 0.003 g
M. Soleus ([1]; Table 16 study, 30 nmol/kg): 0.012 ± 0.0005 g
BW at termination [1, 3]: 38.2 ± 1.0 g
Fat mass change from baseline [1, 3]: -10.2 ± 0.6 g
Lean mass change from baseline [1, 3]: 0.4 ± 0.4 g
Relative body weight change at termination [1, 3]: 89.0 ± 2.2 %
Blood HbA1c ([1]; Table 16 study, 60 nmol/kg): 4.15 ± 0.1 %
M. Gastrocnemius ([1]; Table 16 study, 60 nmol/kg): 0.16 ± 0.004 g
M. Soleus ([1]; Table 16 study, 60 nmol/kg): 0.012 ± 0.0004 g
BW at termination [1, 4]: 38.5 ± 0.6 g
Fat mass change from baseline [1, 4]: -10.8 ± 0.6 g
Lean mass change from baseline [1, 4]: 0.8 ± 0.3 g
Relative body weight change at termination [1, 4]: 89.9 ± 1.9 %
Blood HbA1c ([1]; Table 16 study, 100 nmol/kg): 4.1 ± 0.1 %
M. Gastrocnemius ([1]; Table 16 study, 100 nmol/kg): 0.17 ± 0.003 g
M. Soleus ([1]; Table 16 study, 100 nmol/kg): 0.011 ± 0.0006 g
BW at termination [1, 5]: 37.3 ± 0.6 g
Fat mass change from baseline [1, 5]: -11.2 ± 0.6 g
Lean mass change from baseline [1, 5]: 0.8 ± 0.2 g
Relative body weight change at termination [1, 5]: 87.7 ± 1.3 %
Blood HbA1c ([1]; Table 17 study, 30 nmol/kg): 4.2 ± 0.1 %
M. Gastrocnemius ([1]; Table 17 study, 30 nmol/kg): 0.19 ± 0.003* * g
M. Soleus ([1]; Table 17 study, 30 nmol/kg): 0.013 ± 0.0006 g
Body weight at termination [1, 6]: 39.3 ± 0.9 g
Fat mass change from baseline [1, 6]: -9.5 ± 0.6 g
Lean mass change from baseline [1, 6]: -0.2 ± 0.2 g
Relative body weight change at termination [1, 6]: 82.4 ± 1.6 %
